Drawing on patent publication US20250163038A1, “CBL-B MODULATORS AND USES THEREOF” (Nimbus Clio, Inc., priority 2021, published 2025), this text covers IC50 and EC50 for 20 compounds.

Structures are written as SMILES. Where two headings read alike, the source gives them in different places.

Assay [1] concerns the target Recombinant human Cbl-b (aa 36-427) (Homo sapiens, UniProt Q13191). As to the kind of experiment: Cbl-b Biochemical Assay (TR-FRET).
Assay [2] relates to Jurkat (clone E6-1) cells with NFAT luciferase reporter. As to the kind of experiment: Jurkat reporter assay (NFAT Luciferase). The assay is classed as cell-based. Particulars: Homo sapiens; Jurkat NFAT luciferase reporter cells, anti-CD3 stimulation, 6 hr; read-out: Jurkat NFAT EC50.
In assay [3] the target is T1, Recombinant human c-Cbl (aa 47-435) (Homo sapiens, UniProt P22681).
T1 sequence (P22681 47-435): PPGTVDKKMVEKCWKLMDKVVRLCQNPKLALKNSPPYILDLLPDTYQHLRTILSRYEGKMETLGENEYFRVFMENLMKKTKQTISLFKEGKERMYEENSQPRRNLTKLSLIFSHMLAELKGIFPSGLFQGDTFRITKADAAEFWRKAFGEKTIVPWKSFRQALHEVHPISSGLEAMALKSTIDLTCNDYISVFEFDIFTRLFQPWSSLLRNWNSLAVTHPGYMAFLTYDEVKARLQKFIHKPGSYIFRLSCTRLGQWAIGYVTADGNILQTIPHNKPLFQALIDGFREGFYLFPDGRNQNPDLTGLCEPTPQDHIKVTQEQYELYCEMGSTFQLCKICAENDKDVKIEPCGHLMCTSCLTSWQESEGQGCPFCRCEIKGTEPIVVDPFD
As to the kind of experiment: c-Cbl Biochemical Assay (TR-FRET).

Setting [4] is: hc-Cbl Biochemical Assay (TR-FRET), read-out: TR-FRET hcCbl IC50.

Recombinant human Cbl-b (aa 36-427), sequence (Q13191 36-427): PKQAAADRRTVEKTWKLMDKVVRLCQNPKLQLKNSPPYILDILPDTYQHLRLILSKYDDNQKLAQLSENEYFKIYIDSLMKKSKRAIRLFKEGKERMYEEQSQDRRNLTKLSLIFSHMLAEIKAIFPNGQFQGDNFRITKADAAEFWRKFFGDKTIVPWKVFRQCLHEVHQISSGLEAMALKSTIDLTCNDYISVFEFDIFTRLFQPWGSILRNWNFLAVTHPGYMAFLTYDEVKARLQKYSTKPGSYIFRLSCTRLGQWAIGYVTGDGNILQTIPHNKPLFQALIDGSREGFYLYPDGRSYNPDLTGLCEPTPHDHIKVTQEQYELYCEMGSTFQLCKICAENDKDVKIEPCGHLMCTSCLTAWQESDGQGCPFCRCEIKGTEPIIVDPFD

`Cn1cnnc1-c1cc(F)ccc1-c1cc(-c2nc3cc(CN[C@@H]4CCC[C@]4(C)O)cc(F)c3o2)nc(C2CC2)c1` [AFL-2, (1S,2R)-2-(((2-(6-Cyclopropyl-4-(4-fluoro-2-(4-methyl-4H-1,2,4-triazol-3-yl)phenyl)pyridin-2-yl)-7-fluorobenzo[d]oxazol-5-yl)methyl)amino)-1-methylcyclopentan-1-ol]: the IC50 was below 200 nM in assay [1] and 200 to 1000 nM in assay [3]. For the same compound, in assay [2], the EC50 lay within 1000 to 10000 nM.

On to `Cn1cnnc1-c1cc(F)ccc1-c1cc(-c2nc3cc(CN[C@@H]4CCC[C@@]4(C)O)cc(F)c3o2)nc(C2CC2)c1` [AFM-1, (1R,2R)-2-(((2-(6-Cyclopropyl-4-(4-fluoro-2-(4-methyl-4H-1,2,4-triazol-3-yl)phenyl)pyridin-2-yl)-7-fluorobenzo[d]oxazol-5-yl)methyl)amino)-1-methylcyclopentan-1-ol], for which the IC50 in assay [1] is below 200 nM; in assay [3] it was 200 to 1000 nM. The EC50 in assay [2] was 1000 to 10000 nM.

In the case of `CO[C@H](C)CNCc1cc(F)c2oc(-c3cc(-c4ccc(F)cc4-c4nncn4C)cc(C4CC4)n3)nc2c1` [AFN-2, [(2-{6-Cyclopropyl-4-[4-fluoro-2-(4-methyl-1,2,4-triazol-3-yl)phenyl]pyridin-2-yl}-7-fluoro-1,3-benzoxazol-5-yl)methyl][(2R)-2-methoxypropyl]amine], the IC50 in assay [1] (read-out: TR-FRET hCbl-b IC50) and in assay [3] (setting [4]) was below 200 nM throughout. The EC50 in assay [2] lay in the range of 200 to 1000 nM.

Regarding `CO[C@@H](C)CNCc1cc(F)c2oc(-c3cc(-c4ccc(F)cc4-c4nncn4C)cc(C4CC4)n3)nc2c1` [AFO-2, [(2-{6-Cyclopropyl-4-[4-fluoro-2-(4-methyl-1,2,4-triazol-3-yl)phenyl]pyridin-2-yl}-7-fluoro-1,3-benzoxazol-5-yl)methyl][(2S)-2-methoxypropyl]amine], the IC50 in assay [1] (read-out: TR-FRET hCbl-b IC50) and in assay [3] (setting [4]) was below 200 nM each time. Moreover, the EC50 in assay [2] was 200 to 1000 nM.

In the case of `Cn1cnnc1-c1cc(F)ccc1-c1cc(-c2nc3cc(CN4CC(F)C4)cc(F)c3o2)nc(C2CC2)c1` [AFP-3, 2-{6-Cyclopropyl-4-[4-fluoro-2-(4-methyl-1,2,4-triazol-3-yl)phenyl]pyridin-2-yl}-7-fluoro-5-[(3-fluoroazetidin-1-yl)methyl]-1,3-benzoxazole], the IC50 in assay [1] (read-out: TR-FRET hCbl-b IC50) lay within 1000 to 10000 nM; in assay [3] (setting [4]), 200 to 1000 nM. The concentration giving a half-maximal response (EC50) in assay [2] lay in the range of 1000 to 10000 nM.

On to `COC1(CN[C@@H](C)c2cc(F)c3oc(-c4cc(-c5ccc(F)cc5-c5nncn5C)cc(C5CC5)n4)nc3c2)CCC1` [AFS-2, [(1S)-1-(2-{6-Cyclopropyl-4-[4-fluoro-2-(4-methyl-1,2,4-triazol-3-yl)phenyl]pyridin-2-yl}-7-fluoro-1,3-benzoxazol-5-yl)ethyl][(1-methoxycyclobutyl)methyl]amine], for which the IC50 in assay [1] (read-out: TR-FRET hCbl-b IC50) and in assay [3] (setting [4]) was below 200 nM each time. Also, the EC50 in assay [2] lay in the range of 200 to 1000 nM.

As for `COC1(CN[C@H](C)c2cc(F)c3oc(-c4cc(-c5ccc(F)cc5-c5nncn5C)cc(C5CC5)n4)nc3c2)CCC1` [AFT-1, [(1R)-1-(2-{6-Cyclopropyl-4-[4-fluoro-2-(4-methyl-1,2,4-triazol-3-yl)phenyl]pyridin-2-yl}-7-fluoro-1,3-benzoxazol-5-yl)ethyl][(1-methoxycyclobutyl)methyl]amine], the IC50 in assay [1] (read-out: TR-FRET hCbl-b IC50) was below 200 nM; in assay [3] (setting [4]), 200 to 1000 nM. Besides, in assay [2], the EC50 fell in the range of 1000 to 10000 nM.

As to `COC[C@H](C)NCc1cc(F)c2oc(-c3cc(-c4ccc(F)cc4-c4nncn4C)cc(C4CC4)n3)nc2c1` [AFU-1, [(2-{6-Cyclopropyl-4-[4-fluoro-2-(4-methyl-1,2,4-triazol-3-yl)phenyl]pyridin-2-yl}-7-fluoro-1,3-benzoxazol-5-yl)methyl][(2S)-1-methoxypropan-2-yl]amine], the half-maximal inhibitory concentration (IC50) in assay [1] (read-out: TR-FRET hCbl-b IC50) and in assay [3] (setting [4]) was below 200 nM in each case. Moreover, the EC50 in assay [2] was below 200 nM.

Take `COC[C@@H](C)NCc1cc(F)c2oc(-c3cc(-c4ccc(F)cc4-c4nncn4C)cc(C4CC4)n3)nc2c1` [AFV-1, [(2-{6-Cyclopropyl-4-[4-fluoro-2-(4-methyl-1,2,4-triazol-3-yl)phenyl]pyridin-2-yl}-7-fluoro-1,3-benzoxazol-5-yl)methyl][(2R)-1-methoxypropan-2-yl]amine]: the IC50 in assay [1] (read-out: TR-FRET hCbl-b IC50) is below 200 nM; in assay [3] (setting [4]), 200 to 1000 nM. For the same compound, the EC50 in assay [2] was in the range of 200 to 1000 nM.

`COC(=O)c1cc2nc(-c3cc(-c4ccc(F)cc4-c4nncn4C)cc(C4CC4)n3)oc2c(F)c1F` [AFW-1, Methyl 2-{6-cyclopropyl-4-[4-fluoro-2-(4-methyl-1,2,4-triazol-3-yl)phenyl]pyridin-2-yl}-6,7-difluoro-1,3-benzoxazole-5-carboxylate]: the IC50 in assay [1] (read-out: TR-FRET hCbl-b IC50) and in assay [3] (setting [4]) was 1000 to 10000 nM throughout. In addition, the concentration for a half-maximal effect (EC50) in assay [2] lay within 1000 to 10000 nM.

`Cn1cnnc1-c1cc(F)ccc1-c1cc(-c2nc3cc(CO)c(F)c(F)c3o2)nc(C2CC2)c1` [AFX-1, (2-{6-cyclopropyl-4-[4-fluoro-2-(4-methyl-1,2,4-triazol-3-yl)phenyl]pyridin-2-yl}-6,7-difluoro-1,3-benzoxazol-5-yl)methanol]: the IC50 in assay [1] (read-out: TR-FRET hCbl-b IC50) and in assay [3] (setting [4]) was 200 to 1000 nM in each case. Besides, the EC50 in assay [2] was 200 to 1000 nM.

Regarding `Cn1cnnc1-c1cc(F)ccc1-c1cc(-c2nc3cc(CN[C@@H]4CCC[C@@H]4O)c(F)c(F)c3o2)nc(C2CC2)c1` [AFY-2, (1S,2R)-2-{[(2-{6-Cyclopropyl-4-[4-fluoro-2-(4-methyl-1,2,4-triazol-3-yl)phenyl]pyridin-2-yl}-6,7-difluoro-1,3-benzoxazol-5-yl)methyl]amino}cyclopentan-1-ol], the IC50 in assay [1] (read-out: TR-FRET hCbl-b IC50) and in assay [3] (setting [4]) was below 200 nM in each case. Besides, the EC50 in assay [2] is below 200 nM.

In the case of `CO[C@H](C)[C@@H](C)NCc1cc(C)c2oc(-c3cc(-c4ccc(F)cc4-c4nncn4C)cc(C4CC4)n3)nc2c1` [AFZ-2, [(2-{6-Cyclopropyl-4-[4-fluoro-2-(4-methyl-1,2,4-triazol-3-yl)phenyl]pyridin-2-yl}-7-methyl-1,3-benzoxazol-5-yl)methyl][(2R,3R)-3-methoxybutan-2-yl]amine], the IC50 in assay [1] (read-out: TR-FRET hCbl-b IC50) and in assay [3] (setting [4]) was 200 to 1000 nM throughout. Further, the EC50 in assay [2] fell in the range of 200 to 1000 nM.

With `Cn1cnnc1-c1cc(F)ccc1-c1cccc(-c2nc3cc(CN4CCC5(CC4)CC5)cc(C(F)(F)F)c3o2)c1` [AG-2, 5-((6-Azaspiro[2.5]octan-6-yl)methyl)-2-(4′-fluoro-2′-(4-methyl-4H-1,2,4-triazol-3-yl)-[1,1′-biphenyl]-3-yl)-7-(trifluoromethyl)benzo[d]oxazole], the results for the IC50 in assay [1] (read-out: TR-FRET hCbl-b IC50) and in assay [3] (setting [4]) were below 200 nM and 1000 to 10000 nM, respectively. Moreover, in assay [2], the EC50 was in the range of 1000 to 10000 nM.

As to `Cn1cnnc1-c1cc(F)ccc1-c1cc(-c2nc3cc(CNCC4(O)CCC4)c(F)c(F)c3o2)nc(C2CC2)c1` [AGA-1, 1-({[(2-{6-Cyclopropyl-4-[4-fluoro-2-(4-methyl-1,2,4-triazol-3-yl)phenyl]pyridin-2-yl}-6,7-difluoro-1,3-benzoxazol-5-yl)methyl]amino}methyl)cyclobutan-1-ol], the IC50 in assay [1] (read-out: TR-FRET hCbl-b IC50) and in assay [3] (setting [4]) was below 200 nM each time. Also, the EC50 in assay [2] is below 200 nM.

Turning to `COCCNCc1cc2nc(-c3cc(-c4ccc(F)cc4-c4nncn4C)cc(C4CC4)n3)oc2c(F)c1F` [AGB-1, [(2-{6-Cyclopropyl-4-[4-fluoro-2-(4-methyl-1,2,4-triazol-3-yl)phenyl]pyridin-2-yl}-6,7-difluoro-1,3-benzoxazol-5-yl)methyl](2-methoxyethyl)amine], the IC50 in assay [1] (read-out: TR-FRET hCbl-b IC50) and in assay [3] (setting [4]) was below 200 nM in each case. Besides, the EC50 in assay [2] is below 200 nM.

With `CO[C@@H](C)[C@H](C)NCc1cc(C)c2oc(-c3cc(-c4ccc(F)cc4-c4nncn4C)cc(C4CC4)n3)nc2c1` [AGC-2, [(2-{6-Cyclopropyl-4-[4-fluoro-2-(4-methyl-1,2,4-triazol-3-yl)phenyl]pyridin-2-yl}-7-methyl-1,3-benzoxazol-5-yl)methyl][(2S,3S)-3-methoxybutan-2-yl]amine], the IC50 in assay [1] (read-out: TR-FRET hCbl-b IC50) and in assay [3] (setting [4]) was below 200 nM each time. For the same compound, the EC50 in assay [2] is below 200 nM.

As to `Cn1cnnc1-c1cc(F)ccc1-c1cc(-c2nc3cc(CNC(C)(C)C4CCC4)c(F)c(F)c3o2)nc(C2CC2)c1` [AGD-1, (2-Cyclobutylpropan-2-yl)[(2-{6-cyclopropyl-4-[4-fluoro-2-(4-methyl-1,2,4-triazol-3-yl)phenyl]pyridin-2-yl}-6,7-difluoro-1,3-benzoxazol-5-yl)methyl]amine], the figures for the 50% inhibitory concentration (IC50) in assay [1] (read-out: TR-FRET hCbl-b IC50) and in assay [3] (setting [4]) were below 200 nM and 200 to 1000 nM, respectively. In addition, the EC50 in assay [2] fell in the range of 1000 to 10000 nM.

As to `Cn1cnnc1-c1cc(F)ccc1-c1cc(-c2nc3cc(CNCC4CCC4)c(F)c(F)c3o2)nc(C2CC2)c1` [AGE-1, 1-Cyclobutyl-N-((2-(6-cyclopropyl-4-(4-fluoro-2-(4-methyl-4H-1,2,4-triazol-3-yl)phenyl)pyridin-2-yl)-6,7-difluorobenzo[d]oxazol-5-yl)methyl)methanamine], the IC50 in assay [1] (read-out: TR-FRET hCbl-b IC50) and in assay [3] (setting [4]) was below 200 nM throughout. The EC50 in assay [2] was below 200 nM.

As for `Cn1cnnc1-c1cc(F)ccc1-c1cc(-c2nc3cc(CNCC(C)(C)O)c(F)c(F)c3o2)nc(C2CC2)c1` [AGF-1, 1-{[(2-{6-Cyclopropyl-4-[4-fluoro-2-(4-methyl-1,2,4-triazol-3-yl)phenyl]pyridin-2-yl}-6,7-difluoro-1,3-benzoxazol-5-yl)methyl]amino}-2-methylpropan-2-ol], the half-maximal inhibitory concentration (IC50) in assay [1] (read-out: TR-FRET hCbl-b IC50) and in assay [3] (setting [4]) was below 200 nM throughout. Besides, the EC50 in assay [2] was below 200 nM.
